row,SMILES,melting point
1,N#CCc1cccc2c(-c3ccc(Cl)cc3)onc12,165 to 169 °C
2,CC(C)(C)C(=O)c1ccc(C(C)(C)C(=O)O)cc1,128 to 130 °C
3,CCOC(=O)N1CCc2[nH]cc3c(=O)n(-c4ccccc4)nc-3c2C1,236 to 238 °C
4,N#Cc1c(C(N)=O)c2n(c1C1CC1)CCN(C(=O)Nc1ccc(C(=O)O)cc1)C2,279 to 280 °C
5,C[C@@H]1CNC[C@H]2Cc3c(ncc(F)c3C=NO)N21,195 to 197 °C
6,CCOC(=O)C1=CCCC[C@H]1S(=O)(=O)Nc1ccc(F)cc1Cl,47 to 49 °C
7,CCCOc1ccc(-c2ccc3c(c2)C=C(C(=O)O)CCN3C=O)cc1,215 to 217 °C
8,Cc1c(Cc2ccc(F)cc2)c(=O)oc2cc(OC(=O)N(C)c3ccccc3)ccc12,185 to 186 °C
9,O=Cc1ccc(CCCCCCCC(=O)O)o1,70 to 72 °C
10,CCOC1OC(COC(C)=O)C(OC2OC(COC(C)=O)C(OC(C)=O)C(OC(C)=O)C2OC(C)=O)C(OC(C)=O)C1OC(C)=O (stereo unspecified),133 to 135 °C
11,Cc1cc(CC(=O)OC(C)(C)C)ccc1NC(=O)Nc1ccccc1C(F)(F)F,178 to 180 °C
12,O=C(O)Cc1c(C(=O)c2ccc(Cl)cn2)[nH]c2cc(Cl)ccc12,242 to 244 °C
13,O=C(N1CCOCC1)C12CC(CN1)C2,97.5 to 98 °C
14,N#CSCOc1c(Cl)cc(Cl)c(Cl)c1Cl,51 to 53 °C
15,COc1ccc(-c2cn(C)cc(-c3ccccc3)c2=O)cc1OC,154 to 157 °C
16,Cc1ccc(Sc2nc(Cl)c(C#N)cc2F)cc1,124 to 125 °C
17,CC(C)C(C)NC1=NS(=O)(=O)c2cc([N+](=O)[O-])ccc2N1 (stereo unspecified),308 to 311 °C
18,NC1=NS(=O)N=C1NCCSCc1ccc(CN2CCCCC2)o1 (stereo unspecified),161 to 163 °C
19,O=C(O)C1(CCCCCC(O)CCCCCC2(C(=O)O)CC2)CC1,87 to 91 °C
20,CC(=O)c1nc2c(cc1F)C[C@@H]1CN(C(=O)OC(C)(C)C)C[C@@H](C)N21,178 to 180 °C
21,COC(=O)C1=C(OS(=O)(=O)c2ccc([N+](=O)[O-])cc2)C(=O)O[C@@H]1C,123 to 124 °C
22,Cc1nc2cnc3ccc(Cl)cc3c2n1-c1ccccc1Cl,178 °C
23,O=[N+]([O-])N=C(NCc1cnc(Cl)s1)NCc1cnc(Cl)s1,217 to 218 °C
24,CCCCOC(=O)NC(=O)C(c1ccccc1)c1ccccc1,82 to 84 °C
25,CCCCCCCCCCCCCCCc1cc2ccc(C(=O)O)cc2[nH]1,140 to 142 °C
26,CC(C)C[C@H](CC(=O)OC(C)(C)C)C(=O)N1C(=O)OC[C@@H]1C(C)C,143 to 144 °C

row,SMILES,melting point
1,O=S(=O)(c1ccc(Cl)c2ccccc12)N1CC2CCC(CC2)C1,134 to 137 °C
2,O=C(O)CCC(=NO)c1ccc(-c2ccc(Br)cc2)cc1,175 to 176 °C
3,CCCCCCCCCCCc1nnc2n1-c1sc(CC)cc1C(c1ccc(OC)cc1)OC2 (stereo unspecified),91 to 93 °C
4,CON=Cc1ccc(-c2ccccc2NC(=O)c2c(C)nn(C)c2F)cc1,114 to 116 °C
5,CC(C)OC(=O)Cn1c(=O)n(C)c(=O)n(-c2cc(N=c3sc(=S)n4n3CCC=C4)c(F)cc2Cl)c1=O,105 to 113 °C
6,O=C(OCN1C(=O)c2ccccc2S1(=O)=O)c1c(Cl)cncc1Cl,159 to 160 °C
7,C=CCOC(=O)c1ccc(N)cc1O,58 to 59 °C
8,Nc1nc2cccnc2c2c1nc(CF)n2CC1(O)CCOC1 (stereo unspecified),209 to 210 °C
9,Cc1ccc2c(c1)C=Cc1cc(C)ccc1C2c1cn(Cc2ccc(C(=O)N[C@@H](CC(=O)O)C(=O)O)o2)c(=O)[nH]c1=S,195 °C
10,C#CCN(Cc1ccc2nc(C)[nH]c(=O)c2c1)c1ccc(C(=O)NCC(OC(C)=O)c2ccccc2)cc1 (stereo unspecified),203 to 205 °C
11,Cc1ccc2c(c1)CCn1ccnc1C2=C1CCN(CCc2ccc(O)cc2)CC1,176 °C
12,Cc1cc(=O)n(C2CCCCC2)c(=O)n1C,135 to 137 °C
13,CCCc1cc(-c2ccc(F)c3ccccc23)nc(N)n1,137 °C
14,O=C(O)C(=O)c1ccc(OCCCC(=O)c2ccc3ccccc3c2)cc1,133 to 135 °C
15,Cc1cc2c3c(c1)nc(N1CCN(C)CC1)n3CCC2,164 to 165 °C
16,COc1cccc(N(C)C(=O)Oc2ccc(C(F)(F)F)cc2)n1,85 to 86 °C
17,CNS(=O)(=O)Cc1ccc(NN=CCSc2ccccc2)cc1,110 to 112 °C
18,COc1cc(OC)c2cc(-c3ccc(OC)nc3OC)oc2c1,155 to 156 °C
19,CCCc1ccc(-c2ccn([C@H](CC(=O)OCc3ccccc3)C(=O)N[C@H](C(=O)NC)C(C)(C)C)c2)cc1,63 to 65 °C
20,CCOC(=O)c1nc2c(=O)[nH]c3cc(C(F)(F)F)ccc3n2c1CP(=O)(O)O,> 250 °C
21,CCCc1nc2c(N)nc3ccccc3c2n1CCCCC(N)=O,202 to 203 °C
22,CCOC(=O)N1CCC2(CC1)N=C(N)c1c(F)ccc(Cl)c1N2,182 to 184 °C
23,O=C1N(c2c(Cl)cccc2Cl)Cc2cnc(NCC3CCCCC3)nc2N1c1ccccc1,229 to 233 °C
24,O=C1CN2Cc3cc(OCCCC(=O)N(CCCCCCOC(=O)c4ccccc4)C4CCCCC4)ccc3N=C2N1,94 to 95 °C
25,N#Cc1cccc(-c2ccc3c(Cl)c[nH]c(=O)c3c2)c1,> 300 °C
26,Cc1cc(SCCSCC(=O)O)ccc1O,86 °C

row,SMILES,melting point
1,COc1cc(Nc2c(C#N)cnc3cc(-c4ccc(CN(CCO)CCO)o4)ccc23)c(Cl)cc1Cl,155 to 160 °C
2,CCC(C)CNN(NCC(C)CC)C(=O)c1cc(NC(=O)CCl)cc(C(N)=O)c1 (stereo unspecified),160 to 162 °C
3,Cc1cccc(NC(=O)c2ccccc2CN2C(=O)C3(COc4cc5c(cc43)CCO5)c3ccccc32)c1C (stereo unspecified),> 230 °C
4,Oc1ccc2oc(-c3cc(OCc4ccccc4)c(O)cc3-c3ccccc3)cc2c1,186 to 187 °C
5,CNC(=S)C1(c2cccc(C)n2)CCCCS1 (stereo unspecified),139 °C
6,CC(C)(C)NCC(O)COc1ccc(C(=O)Nc2cccc3[nH]ccc23)cc1 (stereo unspecified),212 °C
7,CCCCCC(O)(CC#N)c1ccc(OC)cc1 (stereo unspecified),45 to 47 °C
8,O=C(N[C@H]1CC[C@@H](F)CC1)OCc1ccccc1,105 to 107 °C
9,c1ccc2c(c1)OCCc1c-2n(CCN2CCCCC2)c2ccccc12,103 °C
10,CC(C)(C)c1cc(-c2c(C(=O)O)c(=O)oc3cc4c(cc23)CCC4)cc(C(C)(C)C)c1O,256 to 260 °C
11,OCc1ccc(C2=CCCCC2)cc1,70 to 71 °C
12,CCc1c(-c2ccc(OCc3ccccc3)cc2)c2c(C(=O)N(C)C)c(C(=O)O)c3cccc1n32,236 to 238 °C
13,O=C(O)c1ccc(OCCCc2ccc(OCc3ccccc3)cc2)cc1,128 to 130 °C
14,N#Cc1ccc(Nc2nc(Cl)nc(Cc3c(Cl)cccc3Cl)n2)cc1,243 to 244 °C
15,O=C(C=Cc1ccc(COC2OC(CO)C(O)C(O)C2O)o1)c1ccccc1 (stereo unspecified),127 °C
16,CC(C)c1ccc(C2(O)C(=O)c3ccccc3C2=O)c(OC(=O)C=Cc2ccccc2)c1,95 to 97 °C
17,CCCOc1c(OC)cc(N)c2ncccc12,73 to 74 °C
18,CCCCCCCCCCC(=O)Nc1cc(F)cc2c1OCCC21SC(=O)NC1=O (stereo unspecified),69 to 71 °C
19,Sc1nncn1Cc1ccccc1,124 to 125 °C
20,Cc1cc(-c2ccc(C(F)(F)F)cc2)cc(-c2cccc(-c3ccnc(N)c3)n2)n1,160 °C
21,NC(=O)CN(C(=O)CCCOc1ccc([N+](=O)[O-])c(C=O)c1)C1CCCCC1,104 to 105 °C
22,O=C(O)C(CCc1ccccc1)NC1CCc2ccccc2NC1=O (stereo unspecified),173 to 175 °C
23,C/C=C/OC(=O)/C=C/N(C)C,48 to 48.5 °C
24,CCOC(=S)C(C=P(c1ccccc1)(c1ccccc1)c1ccccc1)C(=O)C(F)(F)F (stereo unspecified),190 °C
25,Nc1c(-c2ccc(-c3ccccc3F)cc2)nc2ccc(Cl)cc2c1C(=O)O,247 to 249 °C
26,O=C1OCC2C3OC(C4CCCCC43)C12 (stereo unspecified),90 to 91 °C

row,SMILES,melting point
1,CN1c2cscc2C(=O)N(CCN2CCOCC2)c2ccccc21,109 to 111 °C
2,CC1(C)OCc2cc(CCNC(=O)C(F)(F)F)ccc2O1,91 to 93 °C
3,COc1c(-c2cc3c(s2)CCC(CO)C3)ccc2c(=O)c(C(=O)O)cn(C3CC3)c12 (stereo unspecified),218 to 219 °C
4,Cc1csc(N2C(=O)C(Cc3ccccc3)NC2=S)n1 (stereo unspecified),169 to 171 °C
5,CCn1ncc2c(NC3CCc4ccccc43)c3ccccc3nc21 (stereo unspecified),233 to 235 °C
6,O=C(CSCCNC(=O)c1ccco1)NCCCOc1cccc(CN2CCCCC2)c1,60.5 to 61.5 °C
7,CS(=O)(=O)c1ccc(-c2nnc(Cl)cc2-c2ccc(Cl)cc2)cc1,190 °C
8,CCCOC(Nc1ccccc1)(OCCC)c1ccnc(C(=O)c2ccc(Cl)cc2)c1,140 to 141 °C
9,CN1C(=O)CC[C@]2(C)c3ccc(Sc4nc5c(Cl)cccc5s4)cc3CC[C@@H]12,207 to 209 °C
10,Cc1nnc2c(NC3CCCC3)nc3ccccc3n12,196 to 198 °C
11,O=c1oc2cc(OCc3nnn[nH]3)cc(OCc3nnn[nH]3)c2c2c1C(c1ccccc1)CCC2 (stereo unspecified),153 to 154 °C
12,COc1ccc(C(=O)OC(=C2C(=O)N(C(N)=O)c3cc(Cl)c(F)cc32)c2cccs2)cc1,220 to 221 °C
13,CNC(=O)C(N)C(N)=O (stereo unspecified),121 to 122 °C
14,Cc1cc(SCC(CS(=O)(=O)c2ccc(-c3ccc(Cl)cc3)cc2)C(=O)O)nc(C)n1 (stereo unspecified),170 to 172 °C
15,Cc1c(C(=O)Nc2ccc(N3CCC(N4CCOCC4)CC3)c(C#N)c2)cnn1-c1ccc(F)c(F)c1,243 °C
16,COc1ccc(CC(CC(=O)O)CC(=O)O)cc1,109 to 110 °C
17,O=S(=O)(/C=C/c1ccsc1)CS(=O)(=O)/C=C/c1ccsc1,150 to 152 °C
18,CC(C)n1cc(-c2c(-c3ccccc3)nn3ccncc23)ccc1=O,196 to 197 °C
19,CCc1cccc2c3c([nH]c12)C(CC)(CC=N)OCC3 (stereo unspecified),101 to 103 °C
20,Nc1cccc(F)c1O,115 °C
21,ONCc1coc(-c2ccccc2)n1,59 to 61 °C
22,Cc1c(OCc2ccc(F)cc2)cnn(C(C)(C)C)c1=O,65 to 66.5 °C
23,O=C1c2ccccc2C(=O)c2oc(-c3ccccc3F)nc21,> 260 °C
